# Results published in US7422854B1, “Cholesterol reduction signature” (priority 2002, dated 2008).
# Assays:
# livers of rats = experiment: Signature Projection Score (SPS): match of liver gene expression to the Cholesterol Reduction Signature; assay type: in vivo; conditions: dose 10 (mg/ml), rat liver, maximum of training treatments = 100
# Protocol: (§1) After determination of the MTD and FED for a compound, each compound was dissolved in a vehicle for administration on day 1 of the study (additional daily doses were stored as frozen aliquots from this initial formulation). Each compound was administered to three individual male Sprague-Dawley rats for each of the two doses (MTD and FED) for one of four different times (0.25 day, 1 day, 3 days, and 5 days), yielding a total of up to 24 animals per compound study. Vehicle choice was based on solubility of the compound, effect of food on adsorption, and the vehicles used in the literature reports examined during the FED selection investigations, described above. Generally, the route and vehicle in which the FED was defined are used. When there was a choice of routes and vehicles, oral routes were chosen over injection routes. Many compounds, especially oncolytics, are only administerable intravenously. In such cases, the compound was administered as an intravenous formulation into the tail vein. Orally administered compounds were given dissolved in either water, 1% carboxymethycellulose (CMC) or corn oil. Intravenously and intraperitoneally administered compounds were given in 0.9% saline. Subcutaneously administered compounds were given in corn oil. Animal body weights were determined at 1 day and, where appropriate, at 4 days, before necropsy, and clinical observations were made on a daily basis. Control animals were dosed with vehicle only. Three male animals were used for each dose and time combination used for the compound treatment.
# (§2) Tissue harvest and handling: After the allocated treatment time, the tissues from the animals were harvested. […] All the tissues collected were divided to provide samples for histopathological analyses, and the remainder of each tissue was then snap-frozen. […] The following blood constituents were measured: Blood Urea Nitrogen (BUN), Creatinine (CRE), Glucose (GLU), Alanine Transaminase (ALT), Aspartate Aminotrans-ferase (AST), Alkaline Phosphatase (ALP), Total Bilirubin (TBI), Sodium (SOD), Potassium (POT), Chloride (CHL), Phosphorus (PHO), Total Protein (TPR), Albumin (ALB), Cholesterol (CHO), Creatine Phosphokinase (CPK), Lactate Dehydrogenase (LDH), Carbon Dioxide (CO2), Uric Acid (UA), and Lipase. […] The parameters were measured using a Baker 9000 blood cell analysis instrument according to the manufactures instructions. The following blood constituents were measured: Leukocyte count (WBC), Differential Leukocyte counts, Erythrocyte count (RBC), Hemoglobin concentration (HGB), Hematocrit (HCT), Mean Corpuscular Volume (MCV), Mean Corpuscular Hemoglobin (MCH), Mean Corpuscular Hemoglobin Concentration (MCC), Thrombocyte Count (PLC). Histopathology: Histopathological analyses of hematoxylin and eosin-stained tissue sections were performed and peer-reviewed by board-certified (Diplomate, American College of Veterinary Pathologists) veterinary pathologists. Preparation of Enriched mRNA: Punch Biopsies were Taken from the Frozen Tissues and were completely homogenized before being processed using the MagNA Pure robot. (Roche Diagnostics Corp., Indianapolis, Ind.) in combination with the MagNA Pure LC RNA Isolation kit II (Roche Diagnostics Corp). The amount of lysis buffer was adjusted to allow 1 ml per 50 mg for liver tissue, or 1 ml per 80 mg for all other tissues. After complete homogenization and before loading of the samples into the 32-well MagNA Pure plate, the samples were syringed 5-6 times using a 20-gauge 3-ml syringe to ensure a smooth solution for robotic processing. Tissue sample processing was performed in duplicate wells (loading 150 μl of homogenized sample and 150 μl of additional lysis buffere to each well) of the MagNA Pure LC, which is programmed to extract mRNA using oligo-dT selection technology into a final elution volume of 100 μl. Poly A(+) RNA sample concentration was performed using a standard ethanol precipitation protocol in the presence of glycogen (50 μg/ml).
# rat = conditions: rat, 4-7 daily dosing; cited from earlier work
# male Sprague-Dawley rats = experiment: Cholesterol Lowering Index: total blood cholesterol (clinical chemistry) in treated versus vehicle-treated rats; assay type: in vivo, rat; conditions: male rats; for Chol index (fold reduction): vs vehicle
# From the text: Compound dosing was based on the acute dose LD50s recorded in published reference or literature sources. […] The MTD (maximum tolerated dose) was then selected as the dose at which the animals […] 5-10% body weight during the 5-day range finding study. […] In addition, the clinical observations must show no or mild clinical signs during the whole of the range-finding study. At the next highest dose, signs and symptoms of adverse effects and exceeding those of the MTD should be seen to occur. Should these criteria not be met, the range-finding study is repeated using a modified dose range.
# as §1
# as §2, with “Corp).” for “Corp). The amount of lysis buffer was adjusted to allow 1 ml per 50 mg for liver tissue, or 1 ml per 80 mg for all other tissues. After complete homogenization and before loading of the samples into the 32-well MagNA Pure plate, the samples were syringed 5-6 times using a 20-gauge 3-ml syringe to ensure a smooth solution for robotic processing. Tissue sample processing was performed in duplicate wells (loading 150 μl of homogenized sample and 150 μl of additional lysis buffere to each well) of the MagNA Pure LC, which is programmed to extract mRNA using oligo-dT selection technology into a final elution volume of 100 μl. Poly A(+) RNA sample concentration was performed using a standard ethanol precipitation protocol in the presence of glycogen (50 μg/ml).”
structure (smiles),measurement,setting,value
"C#C[C@]1(O)CC[C@H]2[C@@H]3CCc4cc(O)ccc4[C@H]3CC[C@@]21C [ETHINYLESTRADIOL, (17α)-norpregna-1,3,5(10)-trien-20-yne-3,17-diol]",SPS,livers of rats; time point 1 day,50
same,SPS,livers of rats; time point 5 days,76.2
same,reduction in total cholesterol,rat,89%
same,Cholesterol Index (fold reduction),"male Sprague-Dawley rats; Table 4, dose 10, time point 5 days",3.9 fold reduction
same,Chol index (fold reduction),"male Sprague-Dawley rats; dose 10, time 3 days",3.65 fold reduction
same,Chol index (fold reduction),"male Sprague-Dawley rats; dose 10, time 5 days",4.09 fold reduction
